Data reported in patent EP0394553A2, “Use of fluorine containing pyridone carboxylic acid derivatives for preparing a medicament for the treatment of HIV infections” (DAIICHI PHARMACEUTICAL CO., LTD., priority 1989, dated 1990).
Like-named read-outs stand apart in the source and are kept apart here.

Key:
HIV (LAV 1) = assay: microbe, parasite or virus in culture; conditions: for Viable cell count / Viral antigen-positive cell percentage: 10 mcg/ml; for viability at 1 µg/mL / viability at 2.5 µg/mL / viability at 5 µg/mL / viability at 10 µg/mL: Human immunodeficiency virus 1, CCRF-CEM
Description: Human T cell-derived, T4 antigen-positive CEM cells (provided by the Institut Pasteur, France) were used as host cells of HIV. Cell culture was carried out in a carbon dioxide-containing atmosphere in an incubator maintained at 37°C according to a conventional method [cf. […] The culture supernatant (5×10⁶ TCID₅₀/ml) obtained by subjecting CEM cells to HIV (LAV 1) infection and stored at -70°C was used as the HIV source.
The medium for cell culture (10 ml) placed in a plastic culture flask (25 cm²) was inoculated with CEM cells at a cell density of 2.5×10⁵ cells/ml. After 3 days of incubation, the culture was transferred to a 15-ml centrifuge tube and subjected to centrifugation at 1,000 revolutions per minute for 5 minutes for sedimentation of cells and removal of the culture medium.
The stock viral suspension was added to the host cells thus prepared to an MOI of 0.05 and the mixture was maintained at 37°C for 90 minutes with stirring at 30-minute intervals for viral adsorption. The medium was added to HIV-infected cells to a cell density of 5.0×10⁵ cells/ml to give an HIV-infected cell suspension.
A mixture (1.0 ml) of the three constituents mentioned below was added to each well of a 24-well plastic culture plate and the test substance final concentration was adjusted to 10 mcg/ml, 5 mcg/ml, 2.5 mcg/ml or 1 mcg/ml. The "no addition" wells (0 mcg/ml) served as controls.
After 4 days of incubation following viral infection, the cells in each well on the 24-well culture plate were suspended uniformly by pipetting and a 0.5-ml portion of the suspension was separated. A 2.0-ml portion of test substance-free fresh medium was added to the remaining 0.5-ml portion of the cell suspension, followed by incubation.
Seven days after viral infection, pipetting was performed to give a uniform cell suspension in each well and a 0.5-ml portion of the suspension was separated.
Incubation was continued and, 10 days after viral infection, a uniform cell suspension was produced in the same manner in each well and a 1.5-ml portion thereof was separated. A fresh 2.0-ml portion of the medium free of (or containing) the test substance was added to the well, followed by further incubation.
Fifteen days after viral infection, the cells in each well were suspended uniformly in the same manner in the medium and a 2.0-ml portion of the suspension was separated. A fresh 2.0-ml portion of the medium free of (or containing) the test substance was added to the remaining 0.5 ml of the cell suspension and incubation was continued.
Medium exchange was performed in the same manner 20 days and 25 days after viral infection.
The cell suspensions collected 4 days, 7 days, 10 days, 20 days and 30 days after viral infection were tested for viable cell count and viable cell percentage by trypan blue staining. At the same time, viral antigen-positive cell percentage determination was carried out by immunofluorescence using an anti-HIV antiserum isolated from a healthy carrier of HIV.
The numerical values given each is the mean for the respective two wells on the culture plate. The viable cell count is the total cell count minus the count of dead cells stained with trypan blue. The viable cell percentage is the percentage of viable cells among all the cells including dead cells. The viral antigen-positive cell percentage is the percentage of cells indicating antigen expression as found among all the cells including dead cells.

in vivo = conditions: mouse, po
[1] = continuous addition, after 4 days
[2] = continuous addition, after 7 days
[3] = continuous addition, after 10 days
[4] = continuous addition, after 20 days
[5] = continuous addition, after 30 days

Question: For `CC1COc2c(N3CCN(C)CC3)c(F)cc3c(=O)c(C(=O)O)cn1c23` (racemic) [OFLX, (±)-9-fluoro-3-methyl-10-(4-methyl-1-piperazinyl)-7-oxo-2,3-dihydro-7H-pyrido[1,2,3-de][1,4]benzoxazine-6-carboxylic acid], which Viable cell count (HIV (LAV 1); 4-day addition, after 7 days) is on record?
Answer: 63 × 10⁴ cells/ml

Question: What about the “Viral antigen-positive cell percentage” value (HIV (LAV 1); 4-day addition, after 7 days) of the same molecule?
Answer: 63%

Question: And the Viable cell count (HIV (LAV 1); 4-day addition, after 10 days)?
Answer: 280 × 10⁴ cells/ml

Question: What about the “Viral antigen-positive cell percentage” value (HIV (LAV 1); 4-day addition, after 10 days) of the same molecule?
Answer: 40%

Question: And the Viable cell count (HIV (LAV 1); 4-day addition, after 20 days)?
Answer: 310 × 10⁴ cells/ml

Question: What about the “Viral antigen-positive cell percentage” value (HIV (LAV 1); 4-day addition, after 20 days) of the same molecule?
Answer: 14%

Question: What about the Viable cell count (HIV (LAV 1); 4-day addition, after 30 days) of the same molecule?
Answer: 320 × 10⁴ cells/ml

Question: And the “Viral antigen-positive cell percentage” value (HIV (LAV 1); 4-day addition, after 30 days)?
Answer: 3%

Question: And the Viable cell count (HIV (LAV 1); [1])?
Answer: 280 × 10⁴ cells/ml

Question: What about the “Viral antigen-positive cell percentage” value (HIV (LAV 1); [1]) of the same molecule?
Answer: 78%

Question: And the Viable cell count (HIV (LAV 1); [2])?
Answer: 55 × 10⁴ cells/ml

Question: And the “Viral antigen-positive cell percentage” value (HIV (LAV 1); [2])?
Answer: 72%

Question: And the Viable cell count (HIV (LAV 1); [3])?
Answer: 130 × 10⁴ cells/ml

Question: What about the “Viral antigen-positive cell percentage” value (HIV (LAV 1); [3]) of the same molecule?
Answer: 43%

Question: What about the Viable cell count (HIV (LAV 1); [4]) of the same molecule?
Answer: 290 × 10⁴ cells/ml

Question: What about the “Viral antigen-positive cell percentage” value (HIV (LAV 1); [4]) of the same molecule?
Answer: 9%

Question: What about the Viable cell count (HIV (LAV 1); [5]) of the same molecule?
Answer: 390 × 10⁴ cells/ml

Question: What about the “Viral antigen-positive cell percentage” value (HIV (LAV 1); [5]) of the same molecule?
Answer: 6%

Question: What about the viability at 1 µg/mL (HIV (LAV 1); 96 h, read-out: Viable cell percentage, 1 mcg/ml, 4-day addition, after 4 days) of the same molecule?
Answer: 96%

Question: What about the viability at 1 µg/mL (HIV (LAV 1); 96 h, read-out: Viable cell percentage, 1 mcg/ml, continuous addition, after 4 days) of the same molecule?
Answer: 94%

Question: And the viability at 2.5 µg/mL (HIV (LAV 1); 96 h, read-out: Viable cell percentage, 2.5 mcg/ml, 4-day addition, after 4 days)?
Answer: 96%

Question: What about the viability at 2.5 µg/mL (HIV (LAV 1); 96 h, read-out: Viable cell percentage, 2.5 mcg/ml, continuous addition, after 4 days) of the same molecule?
Answer: 94%

Question: What about the viability at 5 µg/mL (HIV (LAV 1); 96 h, read-out: Viable cell percentage, 5 mcg/ml, 4-day addition, after 4 days) of the same molecule?
Answer: 93%

Question: What about the viability at 5 µg/mL (HIV (LAV 1); 96 h, read-out: Viable cell percentage, 5 mcg/ml, continuous addition, after 4 days) of the same molecule?
Answer: 98%

Question: And the viability at 10 µg/mL (HIV (LAV 1); 96 h, read-out: Viable cell percentage, 10 mcg/ml, 4-day addition, after 4 days)?
Answer: 94%

Question: What about the viability at 10 µg/mL (HIV (LAV 1); 96 h, read-out: Viable cell percentage, 10 mcg/ml, continuous addition, after 4 days) of the same molecule?
Answer: 95%

Question: What about the viability at 1 µg/mL (HIV (LAV 1); 168 h, read-out: Viable cell percentage, 1 mcg/ml, continuous addition, after 7 days) of the same molecule?
Answer: 55%

Question: And the viability at 2.5 µg/mL (HIV (LAV 1); 168 h, read-out: Viable cell percentage, 2.5 mcg/ml, continuous addition, after 7 days)?
Answer: 64%

Question: And the viability at 5 µg/mL (HIV (LAV 1); 168 h, read-out: Viable cell percentage, 5 mcg/ml, continuous addition, after 7 days)?
Answer: 64%

Question: And the viability at 10 µg/mL (HIV (LAV 1); 168 h, read-out: Viable cell percentage, 10 mcg/ml, continuous addition, after 7 days)?
Answer: 66%

Question: What about the viability at 1 µg/mL (HIV (LAV 1); 240 h, read-out: Viable cell percentage, 1 mcg/ml, continuous addition, after 10 days) of the same molecule?
Answer: 42%

Question: And the viability at 2.5 µg/mL (HIV (LAV 1); 240 h, read-out: Viable cell percentage, 2.5 mcg/ml, continuous addition, after 10 days)?
Answer: 81%

Question: And the viability at 5 µg/mL (HIV (LAV 1); 240 h, read-out: Viable cell percentage, 5 mcg/ml, continuous addition, after 10 days)?
Answer: 87%

Question: And the viability at 10 µg/mL (HIV (LAV 1); 240 h, read-out: Viable cell percentage, 10 mcg/ml, continuous addition, after 10 days)?
Answer: 87%

Question: What about the viability at 1 µg/mL (HIV (LAV 1); 480 h, read-out: Viable cell percentage, 1 mcg/ml, continuous addition, after 20 days) of the same molecule?
Answer: 75%

Question: What about the viability at 2.5 µg/mL (HIV (LAV 1); 480 h, read-out: Viable cell percentage, 2.5 mcg/ml, continuous addition, after 20 days) of the same molecule?
Answer: 94%

Question: And the viability at 5 µg/mL (HIV (LAV 1); 480 h, read-out: Viable cell percentage, 5 mcg/ml, continuous addition, after 20 days)?
Answer: 95%

Question: What about the viability at 10 µg/mL (HIV (LAV 1); 480 h, read-out: Viable cell percentage, 10 mcg/ml, continuous addition, after 20 days) of the same molecule?
Answer: 92%

Question: And the viability at 1 µg/mL (HIV (LAV 1); read-out: Viable cell percentage, 1 mcg/ml, 4-day addition, after 7 days)?
Answer: 53%

Question: And the viability at 1 µg/mL (HIV (LAV 1); read-out: Viable cell percentage, 1 mcg/ml, 4-day addition, after 10 days)?
Answer: 21%

Question: What about the viability at 1 µg/mL (HIV (LAV 1); read-out: Viable cell percentage, 1 mcg/ml, 4-day addition, after 20 days) of the same molecule?
Answer: 87%

Question: What about the viability at 1 µg/mL (HIV (LAV 1); read-out: Viable cell percentage, 1 mcg/ml, 4-day addition, after 30 days) of the same molecule?
Answer: 37%

Question: And the viability at 1 µg/mL (HIV (LAV 1); read-out: Viable cell percentage, 1 mcg/ml, continuous addition, after 30 days)?
Answer: 33%

Question: And the viability at 2.5 µg/mL (HIV (LAV 1); read-out: Viable cell percentage, 2.5 mcg/ml, 4-day addition, after 7 days)?
Answer: 67%

Question: And the viability at 2.5 µg/mL (HIV (LAV 1); read-out: Viable cell percentage, 2.5 mcg/ml, 4-day addition, after 10 days)?
Answer: 67%

Question: What about the viability at 2.5 µg/mL (HIV (LAV 1); read-out: Viable cell percentage, 2.5 mcg/ml, 4-day addition, after 20 days) of the same molecule?
Answer: 95%

Question: What about the viability at 2.5 µg/mL (HIV (LAV 1); read-out: Viable cell percentage, 2.5 mcg/ml, 4-day addition, after 30 days) of the same molecule?
Answer: 97%

Question: And the viability at 2.5 µg/mL (HIV (LAV 1); read-out: Viable cell percentage, 2.5 mcg/ml, continuous addition, after 30 days)?
Answer: 97%

Question: And the viability at 5 µg/mL (HIV (LAV 1); read-out: Viable cell percentage, 5 mcg/ml, 4-day addition, after 7 days)?
Answer: 59%

Question: And the viability at 5 µg/mL (HIV (LAV 1); read-out: Viable cell percentage, 5 mcg/ml, 4-day addition, after 10 days)?
Answer: 77%

Question: And the viability at 5 µg/mL (HIV (LAV 1); read-out: Viable cell percentage, 5 mcg/ml, 4-day addition, after 20 days)?
Answer: 86%

Question: And the viability at 5 µg/mL (HIV (LAV 1); read-out: Viable cell percentage, 5 mcg/ml, 4-day addition, after 30 days)?
Answer: 97%

Question: And the viability at 5 µg/mL (HIV (LAV 1); read-out: Viable cell percentage, 5 mcg/ml, continuous addition, after 30 days)?
Answer: 94%

Question: And the viability at 10 µg/mL (HIV (LAV 1); read-out: Viable cell percentage, 10 mcg/ml, 4-day addition, after 7 days)?
Answer: 73%

Question: And the viability at 10 µg/mL (HIV (LAV 1); read-out: Viable cell percentage, 10 mcg/ml, 4-day addition, after 10 days)?
Answer: 85%

Question: What about the viability at 10 µg/mL (HIV (LAV 1); read-out: Viable cell percentage, 10 mcg/ml, 4-day addition, after 20 days) of the same molecule?
Answer: 92%

Question: What about the viability at 10 µg/mL (HIV (LAV 1); read-out: Viable cell percentage, 10 mcg/ml, 4-day addition, after 30 days) of the same molecule?
Answer: 95%

Question: And the viability at 10 µg/mL (HIV (LAV 1); read-out: Viable cell percentage, 10 mcg/ml, continuous addition, after 30 days)?
Answer: 95%

Question: What about the LD50 (in vivo) of the same molecule?
Answer: 5450 mg/kg
